From patent publication US10597388B2, “Pyridazinone herbicides” (FMC CORPORATION, priority 2014, dated 2020)

Legend:
Experiment in all cases: Test C greenhouse herbicide test, pre- and postemergence
Assay type in all cases: in vivo
[1] = test system: pigweed (Amaranthus retroflexus)
Summary of the method: (§1)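 Visual ratings on a 0 to 100 scale (0 = no effect, 100 = complete control) versus untreated controls, scored 13–15 d after treatment. Soil-applied preemergence to seeded loam/sand; foliar postemergence to 1- to 4-leaf plants (2–18 cm) in peat-vermiculite mix; compounds formulated in solvent plus surfactant.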

[2] = test system: ragweed (common ragweed, Ambrosia elatior)
Summary of the method: as §1

[3] = test system: foxtail, giant (giant foxtail, Setaria faberii)
Summary of the method: as §1

corn (Zea mays) = test system: corn (Zea mays)
Summary of the method: as §1

[4] = test system: blackgrass (Alopecurus myosuroides)
Summary of the method: as §1

[5] = test system: ryegrass, Italian (Italian ryegrass, Lolium multiflorum)
Summary of the method: as §1

[6] = test system: lambsquarters (Chenopodium album)
Summary of the method: as §1

[7] = test system: barnyardgrass (Echinochloa crus-galli)
Summary of the method: as §1

[8] = test system: waterhemp (common waterhemp, Amaranthus rudis)
Summary of the method: as §1

[9] = test system: wheat (winter wheat, Triticum aestivum)
Summary of the method: as §1

[10] = test system: morningglory (Ipomoea coccinea)
Summary of the method: as §1

[11] = test system: oilseed rape (Brassica napus)
Summary of the method: as §1

[12] = test system: galium (catchweed bedstraw, Galium aparine)
Summary of the method: as §1

[13] = test system: velvetleaf (Abutilon theophrasti)
Summary of the method: as §1

[14] = test system: crabgrass, large (large crabgrass, Digitaria sanguinalis)
Summary of the method: as §1

[15] = Postemergence, 31 g ai/ha, 0 to 100 scale (0 no effect, 100 complete control)
[16] = Postemergence, 125 g ai/ha, scale 0 to 100, 0 is no effect, 100 is complete control
[17] = Postemergence, 250 g ai/ha, scale 0 to 100, 0 no effect, 100 complete control, 13 to 15 d
[18] = Preemergence, 31 g ai/ha, scale 0 to 100, 0 is no effect, 100 is complete control
[19] = Preemergence, 62 g ai/ha, scale 0 to 100, 0 is no effect, 100 is complete control
[20] = Preemergence, 125 g ai/ha, scale 0 to 100, 0 is no effect, 100 is complete control
[21] = Preemergence, 250 g ai/ha, scale 0 to 100, 0 no effect, 100 complete control
[22] = postemergence, 62 g ai/ha, scale 0 to 100, 0 no effect, 100 complete control

Cc1ccc2ccccc2c1-c1c(O)c(I)nn(C)c1=O [Compound 29]
30: Foxtail, Giant plant response rating [3, 15] | Plant response rating, Corn (corn (Zea mays); [16]) | Plant response rating, Wheat [9, 16]
15: Barnyardgrass plant response rating [7, 15]
40: Blackgrass plant response rating [4, 15] | Plant response rating, Barnyardgrass [7, 16] | Plant response rating, Barnyardgrass [7, 17] | Plant response rating, Crabgrass, Large [14, 17]
85: Plant response rating, Ragweed [2, 19] | Plant response rating, Ragweed [2, 20] | Plant response rating, Blackgrass [4, 20] | Blackgrass plant response rating [4, 21] | Plant response rating, Ryegrass, Italian [5, 16] | Plant response rating, Lambsquarters [6, 16] | Lambsquarters plant response rating [6, 22] | Morningglory plant response rating [10, 15] | Plant response rating, Velvetleaf [13, 16]
55: Plant response rating, Crabgrass, Large [14, 20]
5: Wheat plant response rating [9, 15] | Plant response rating, Wheat [9, 19] | Wheat plant response rating [9, 22] | Plant response rating, Oilseed Rape [11, 16] | Plant response rating, Oilseed Rape [11, 20] | Plant response rating, Crabgrass, Large [14, 18] | Plant response rating, Crabgrass, Large [14, 19]
45: Corn plant response rating (corn (Zea mays); [21]) | Plant response rating, Wheat [9, 20]
35: Foxtail, Giant plant response rating [3, 22] | Plant response rating, Barnyardgrass [7, 19] | Velvetleaf plant response rating [13, 15]
90: Ragweed plant response rating [2, 21] | Ragweed plant response rating [2, 22] | Plant response rating, Foxtail, Giant [3, 20] | Plant response rating, Ryegrass, Italian [5, 18] | Plant response rating, Ryegrass, Italian [5, 19] | Plant response rating, Ryegrass, Italian [5, 20] | Ryegrass, Italian plant response rating [5, 21] | Plant response rating, Lambsquarters [6, 17] | Lambsquarters plant response rating [6, 21] | Barnyardgrass plant response rating [7, 21] | Galium plant response rating [12, 15] | Plant response rating, Velvetleaf [13, 17] | Plant response rating, Velvetleaf [13, 19] | Crabgrass, Large plant response rating [14, 21]
95: Pigweed plant response rating [1, 15] | Pigweed plant response rating [1, 22] | Plant response rating, Ragweed [2, 16] | Plant response rating, Ragweed [2, 17] | Foxtail, Giant plant response rating [3, 21] | Plant response rating, Ryegrass, Italian [5, 17] | Plant response rating, Morningglory [10, 19] | Plant response rating, Morningglory [10, 20] | Plant response rating, Galium [12, 18] | Plant response rating, Galium [12, 19] | Galium plant response rating [12, 22]
70: Ryegrass, Italian plant response rating [5, 15] | Waterhemp plant response rating [8, 15] | Oilseed Rape plant response rating [11, 21]
25: Barnyardgrass plant response rating [7, 22]
80: Ragweed plant response rating [2, 15] | Plant response rating, Ragweed [2, 18] | Plant response rating, Foxtail, Giant [3, 17] | Ryegrass, Italian plant response rating [5, 22] | Lambsquarters plant response rating [6, 15] | Plant response rating, Lambsquarters [6, 19] | Plant response rating, Lambsquarters [6, 20] | Plant response rating, Barnyardgrass [7, 20] | Plant response rating, Waterhemp [8, 16] | Waterhemp plant response rating [8, 22] | Plant response rating, Morningglory [10, 18] | Velvetleaf plant response rating [13, 22]
98: Plant response rating, Pigweed [1, 16] | Plant response rating, Pigweed [1, 17] | Plant response rating, Waterhemp [8, 17] | Morningglory plant response rating [10, 21] | Plant response rating, Galium [12, 20] | Galium plant response rating [12, 21]
0: Corn plant response rating (corn (Zea mays); [15]) | Plant response rating, Corn (corn (Zea mays); [18]) | Plant response rating, Corn (corn (Zea mays); [19]) | Plant response rating, Corn (corn (Zea mays); [20]) | Oilseed Rape plant response rating [11, 15] | Plant response rating, Oilseed Rape [11, 17] | Plant response rating, Oilseed Rape [11, 18] | Plant response rating, Oilseed Rape [11, 19] | Oilseed Rape plant response rating [11, 22]
50: Plant response rating, Blackgrass [4, 18] | Plant response rating, Blackgrass [4, 19] | Blackgrass plant response rating [4, 22] | Wheat plant response rating [9, 21] | Plant response rating, Crabgrass, Large [14, 16]
20: Plant response rating, Corn (corn (Zea mays); [17]) | Crabgrass, Large plant response rating [14, 22]
100: Plant response rating, Pigweed [1, 18] | Plant response rating, Pigweed [1, 19] | Plant response rating, Pigweed [1, 20] | Pigweed plant response rating [1, 21] | Plant response rating, Waterhemp [8, 19] | Plant response rating, Waterhemp [8, 20] | Waterhemp plant response rating [8, 21] | Plant response rating, Morningglory [10, 16] | Plant response rating, Morningglory [10, 17] | Morningglory plant response rating [10, 22] | Plant response rating, Galium [12, 16] | Plant response rating, Galium [12, 17] | Plant response rating, Velvetleaf [13, 20] | Velvetleaf plant response rating [13, 21]
60: Plant response rating, Foxtail, Giant [3, 16] | Plant response rating, Blackgrass [4, 16]
75: Plant response rating, Foxtail, Giant [3, 18] | Plant response rating, Foxtail, Giant [3, 19] | Plant response rating, Blackgrass [4, 17] | Plant response rating, Lambsquarters [6, 18]
10: Corn plant response rating (corn (Zea mays); [22]) | Plant response rating, Barnyardgrass [7, 18] | Plant response rating, Wheat [9, 17] | Crabgrass, Large plant response rating [14, 15]
